# According to patent US11970460B1, “4-(4,5-bis(4-bromophenyl)-2-phenyl-1H-imidazol-1-yl)benzoic acid as an antimicrobial compound” (KING FAISAL UNIVERSITY, priority 2023, dated 2024):
# Key:
# Bacillus cereus = experiment: Agar plate disc-diffusion, antibacterial activity (inhibition zone); format: cell-based; settings: nutrient agar, 37° C., 48 h
# Description: (§1) The agar plate disc-diffusion method was applied. […] The discs were then placed onto the surface of agar plates (nutrient agar for bacteria and Sabouraud's dextrose agar for fungi) seeded with the test organism. Each plate contained 15 mL of the agar medium, previously seeded with 0.2 mL of the broth culture of each organism pregrown for 18 hours. The plates were incubated at 37° C. for 48 h, and 72 h for fungi. The inhibition zones were measured in mm. Discs impregnated with DMSO were used as a control, and its inhibition zone was subtracted from the tested compound actual inhibition zone.
# Escherichia coli = experiment: as above; format: cell-based; settings: nutrient agar, 37° C., 48 h
# Description: as §1
# Pseudomonas aeruginosa = experiment: as above; format: cell-based; settings: nutrient agar, 37° C., 48 h
# Description: as §1
# Staphylococcus aureus = experiment: as above; format: cell-based; settings: nutrient agar, 37° C., 48 h
# Description: as §1
# Aspergillus flavus = experiment: Agar plate disc-diffusion, antifungal activity (inhibition zone); format: cell-based; settings: Sabouraud's dextrose agar, 37° C., 72 h
# Description: as §1
# [1] = system: Chrysosporium keratinophilum; experiment: as above; format: cell-based; settings: Sabouraud's dextrose agar, 37° C., 72 h
# Description: as §1
# [2] = A = concentration of comp. = 10,000 μL
# [3] = B = concentration of comp. = 30,000 μL
# [4] = C = concentration of comp. = 50,000 μL
smiles,measurement,setting,value
"O=C(O)c1ccc(-n2c(-c3ccccc3)nc(-c3ccc(Br)cc3)c2-c2ccc(Br)cc2)cc1 [V, 4-(4,5-bis(4-bromophenyl)-2-phenyl-1H-imidazol-1-yl)benzoic acid]","inhibition zone, Bacillus Cereus, A",Bacillus cereus; [2],24 mm
same,"inhibition zone, Bacillus Cereus, B",Bacillus cereus; [3],27 mm
same,"inhibition zone, Bacillus Cereus, C",Bacillus cereus; [4],39 mm
same,"inhibition zone, Escherichia coli, A",Escherichia coli; [2],28 mm
same,"inhibition zone, Escherichia coli, B",Escherichia coli; [3],35 mm
same,"inhibition zone, Escherichia coli, C",Escherichia coli; [4],50 mm
same,"inhibition zone, Pseudomonas aeruginosa, A",Pseudomonas aeruginosa; [2],25 mm
same,"inhibition zone, Pseudomonas aeruginosa, B",Pseudomonas aeruginosa; [3],28 mm
same,"inhibition zone, Pseudomonas aeruginosa, C",Pseudomonas aeruginosa; [4],44 mm
same,"inhibition zone, Staphylococcus aureus, A",Staphylococcus aureus; [2],18 mm
same,"inhibition zone, Staphylococcus aureus, B",Staphylococcus aureus; [3],21 mm
same,"inhibition zone, Staphylococcus aureus, C",Staphylococcus aureus; [4],31 mm
same,"inhibition zone, Aspergillus flavus, A",Aspergillus flavus; [2],23 mm
same,"inhibition zone, Aspergillus flavus, B",Aspergillus flavus; [3],27 mm
same,"inhibition zone, Aspergillus flavus, C",Aspergillus flavus; [4],33 mm
same,"inhibition zone, Chrysosporium keratinophilum, A",[1]; [2],27 mm
same,"inhibition zone, Chrysosporium keratinophilum, B",[1]; [3],29 mm
same,"inhibition zone, Chrysosporium keratinophilum, C",[1]; [4],48 mm
same,melting point,,284 °C
